Experimental data published in patent US20240247030A1, “TARGETED DELIVERY OF TERTIARY AMINE-CONTAINING DRUG SUBSTANCES” (Seagen Inc., priority 2014, published 2024).
Values after ≈ are worked out from the molar mass of the structure shown.

How the values were obtained:
HEL9217 AML cells = test: In vitro cytotoxicity (CellTiter-Glo, 96 h); format: cell-based; details: Homo sapiens, HEL 92.1.7, 96 h, read-out: IC50, HEL9217, MDR+ AML
HL60 AML cells = test: cells; format: cell-based; details: 96 hours; for IC50, HL60, AML: Table 14, cOKT-9 conjugate
Procedure: (§1) In vitro assays. Cells cultured in log-phase growth were seeded for 24 h in 96-well plates containing 150 μL RPMI 1640 supplemented with 20% FBS. Serial dilutions of antibody-drug conjugates in cell culture media were prepared at 4× working concentrations; 50 μL of each dilution was added to the 96-well plates. Following addition of ADC, cells were incubated with test articles for 4 d at 37° C. After 96 h, growth inhibition was assessed by CellTiter-Glo™ (Promega, Madison, W1) and luminescence was measured on a plate reader. The IC50 value, determined in triplicate, is defined here as the concentration that results in a 50% reduction in cell growth relative to untreated controls.

L428 MDR+ HL cells = test: In vitro cytotoxicity (CellTiter-Glo, 96 h); format: cell-based; details: for IC50, L428, MDR+ HL: Table 14, cOKT-9 conjugate, 96 hours
KM-H2 HL cells = format: cell-based; details: Table 14; cOKT-9 conjugate, 96 hours
[1] = system: co-culture of L540cy:U268Luc+ cells; test: In vitro cytotoxicity, bystander co-culture; format: cell-based; details: cAC10 conjugate obtained from compound 30; CD30+ and CD30- cells co-cultured
Procedure: as §1
The results of Table 2 and Table 3 indicate that potent and immunologically specific Ligand Drug Conjugates are obtained when a tubulysin is incorporated into such constructs as a quaternized drug unit and that such conjugates are active against multi-resistant cell lines. […] L540cy are CD30+ and U266 are CD30^−

[2] = system: L540cy Hodgkin lymphoma cells; test: In vitro cytotoxicity (CellTiter-Glo, 96 h); format: cell-based; details: for IC50, L540cy, HL: Table 14, cOKT-9 (anti-transferrin receptor) conjugate, DAR 8 (30) or 6.7 (192), 96 hours
HCT-116 CRC cells = format: cell-based; details: Table 14; cOKT-9 conjugate, 96 hours
Procedure: as §1

[3] = Pharmacokinetics of radiolabeled antibody or ADC; format: in vivo, rat; details: 1 mg/kg i.v., radiolabeled non-targeting ADC
Procedure: PK test articles were radiolabeled using the following procedure.
Each test article was dosed once in replicate animals.

panel of cell lines = test: In vitro cytotoxicity, statements across a panel of cell lines; format: cell-based; details: cOKT-9 conjugates, cell lines of Table 14
Procedure: as §1

TF1a cells = test: Intracellular drug release (LC-MS/MS, 24 hr); format: cell-based; details: Table 12
Procedure: (§2) Intracellular drug release. TFlα, L428, and HCT-15 cells were used for the study. Cells that had been cultured under normal conditions were harvested and washed into fresh medium at ˜5×10^5 cells/mL. For each treatment condition, 5-15×10^6 cells were plated in T25 or T150 flasks. cOKT9-5023 (8-drugs/Ab) was added at 1 μg/mL to cultures and they were incubated at 37° C., 5% CO2 for 24 hr. For suspension cells, a known volume of cell culture was harvested by centrifugation (500×g, 5 min, 4° C.), and an aliquot of the medium was removed and stored for mass spectral analysis (−20° C.). For adherent cells the medium was carefully removed (an aliquot stored for mass spectral analysis) and the cells lifted with trypsin-EDTA followed by centrifugation (500×g, 5 min, 4° C.) to collect the cell pellet. For both suspension and adherent cells, the harvested cell pellets were resuspended in ice cold PBS and an aliquot was removed for enumeration and determination of average cell diameters using a Vi-Cell XR2.03 cell viability analyzer (Beckman Coulter, Fullerton, CA). The remaining cell suspensions were pelleted (500×g, 5 min) and then washed once more with 1 mL of ice cold PBS. The resulting pellets were stored at −20° C.
(§3) Untreated samples were generated using untreated cell pellets and culture medium for use in calibration curves. Untreated cell pellets were spiked with 4 μL of 25× standard analyte. Both spiked and treated cell pellets were suspended by vortexing in 400 μL of MeOH containing internal standard and placed at −20° C. for 15 min. The samples were then centrifuged at 16,000×g and the supernatants were prepared for solid phase extraction. Untreated culture medium samples (0.5 mL) were spiked with 4 μL of 25× standard. Both spiked and treated culture media were mixed with 10 μL of internal standard and prepared for solid phase extraction. Samples were subjected to solid phase extraction and the recovered drug-containing solutions were dried and reconstituted for quantification by LC-MS/MS. To derive an equation for the quantitation of released drug in the experimental unknown samples, the peak area for each drug standard was divided by the peak area obtained for the internal standard. The resultant peak area ratios were plotted as a function of the standard spiked amounts and the data points were fitted to a curve using linear regression. The peak area ratios obtained for released drug to internal standard in the experimental samples were converted to drug amounts using the derived equation.
(§4) MDR cell lines that are CD71^+ are exposed to an LDC (1 μg/mL) comprised of and antibody targeting CD71 (cOKT9) and a quaternized MDR inhibitor (Tariquidar™). The LDC composition designated as cOKT9-gluc4-T was obtained from compound 36 of Scheme 6 and predominately contains LDCs having 8 D^+ units wherein D^+ is quaternized Tariquidar. The predominate LDC of the composition, after controlled hydrolysis of the succinimide ring system is represented by the structure of: […]

HCT-15 cells = test: Intracellular drug release (LC-MS/MS, 24 hr); format: cell-based; details: Table 12, free drug @ 50 nM
Procedure: as §2, §3, §4

L428 cells = test: Intracellular drug release (LC-MS/MS, 24 hr); format: cell-based; details: Table 12, free drug @ 50 nM
Procedure: as §2, §3, §4

[4] = J. Med. Chem., 2009, 52, 238-240; cited from earlier work
Karpas299 ALCL cells = test: In vitro cytotoxicity (CellTiter-Glo, 96 h); format: cell-based; details: Table 4
Procedure: as §1

Ramos NHL cells = test: In vitro cytotoxicity (CellTiter-Glo, 96 h); format: cell-based; details: Table 4
Procedure: as §1

RL cells = test: In vitro cytotoxicity (CellTiter-Glo, 96 h); format: cell-based; details: Table 4
Procedure: as §1

[5] = quaternized auristatin E ADC, 8 D+/Ab, CD30-, CD19+
[6] = Table 4, quaternized auristatin E ADC, 8 D+/Ab

CC[C@H](C)[C@H](NC(=O)[C@H]1CCCCN1C)C(=O)N(C)[C@H](C[C@@H](OC(C)=O)c1nc(C(=O)N[C@@H](Cc2ccccc2)C[C@H](C)C(=O)O)cs1)C(C)C [Compound 26, Tubulysin M, reference compound]
IC50 (HEL9217 AML cells): 0.4 nM | IC50 (HL60 AML cells; Homo sapiens, HL-60, 96 h, read-out: IC50, HL60, AML, Table 13, free drug): 0.2 nM

CC[C@H](C)[C@H](NC(=O)[C@H]1CCCC[N+]1(C)Cc1ccc(NC(=O)[C@H](C)NC(=O)[C@@H](NC(=O)CCCCCN2C(=O)C=CC2=O)C(C)C)cc1)C(=O)N(C)[C@H](C[C@@H](OC(C)=O)c1nc(C(=O)N[C@@H](Cc2ccccc2)C[C@H](C)C(=O)O)cs1)C(C)C (stereo partly drawn) [Compound 30, (2R)-2-(((2S,3S)-1-(((1R,3R)-1-acetoxy-1-(4-(((2R,4S)-4-carboxy-1-phenylpentan-2-yl)carbamoyl)thiazol-2-yl)-4-methylpentan-3-yl)(methyl)amino)-3-methyl-1-oxopentan-2-yl)carbamoyl)-1-(4-((S)-2-((S)-2-(6-(2,5-dioxo-2,5-dihydro-1H-pyrrol-1-yl)hexanamido)-3-methylbutanamido)propanamido)benzyl)-1-methylpiperidin-1-ium]
IC50, L428, MDR+ HL (L428 MDR+ HL cells): 0.0004 µg/mL | IC50, KM-H2 MDR+ HL (KM-H2 HL cells): <0.00026 µg/mL | IC50 against a co-culture of L540cy:U268Luc+ cells [1]: 0.006 µg/mL | IC50, L540cy, HL [2]: 0.001 µg/mL | IC50, HL60, AML (HL60 AML cells): 0.006 µg/mL | IC50, HCT-116, CRC (HCT-116 CRC cells): 0.001 µg/mL

CCCO[C@H](C[C@H](C(C)C)N(C)C(=O)[C@@H](NC(=O)[C@H]1CCCC[N+]1(C)Cc1ccc(O[C@@H]2O[C@H](C(=O)O)[C@@H](O)[C@H](O)[C@H]2O)c(NC(=O)CCNC(=O)[C@H](CN)N2C(=O)C=CC2=O)c1)[C@@H](C)CC)c1nc(C(=O)N[C@@H](Cc2ccccc2)C[C@H](C)C(=O)O)cs1 (stereo partly drawn) [Compound 80, (2R)-1-(3-(3-((S)-3-amino-2-(2,5-dioxo-2,5-dihydro-1H-pyrrol-1-yl)propanamido)propanamido)-4-(((2S,3R,4S,5S,6S)-6-carboxy-3,4,5-trihydroxytetrahydro-2H-pyran-2-yl)oxy)benzyl)-2-(((2S,3S)-1-(((1R,3R)-1-(4-(((2R,4S)-4-carboxy-1-phenylpentan-2-yl)carbamoyl)thiazol-2-yl)-4-methyl-1-propoxypentan-3-yl)(methyl)amino)-3-methyl-1-oxopentan-2-yl)carbamoyl)-1-methylpiperidin-1-ium]
clearance / exposure profile compared with unconjugated antibody (FIG. 12-14) [3]: cleared from circulation much more rapidly than the unmodified antibody

CC[C@H](C)[C@H](NC(=O)[C@H]1CCCCN1C)C(=O)N(C)[C@H](C[C@@H](OC(C)=O)c1nc(C(=O)N[C@@H](Cc2ccccc2)C[C@H](C)C(=O)NNC(=O)OCc2ccc(NC(=O)[C@H](CCCNC(N)=O)NC(=O)[C@@H](NC(=O)CCCCCN3C(=O)C=CC3=O)C(C)C)cc2)cs1)C(C)C [Compound 192, 4-((S)-2-((S)-2-(6-(2,5-dioxo-2,5-dihydro-1H-pyrrol-1-yl)hexanamido)-3-methylbutanamido)-5-ureidopentanamido)benzyl 2-((2S,4R)-4-(2-((1R,3R)-1-acetoxy-3-((2S,3S)—N,3-dimethyl-2-((R)-1-methylpiperidine-2-carboxamido)pentanamido)-4-methylpentyl)thiazole-4-carboxamido)-2-methyl-5-phenylpentanoyl)hydrazinecarboxylate]
IC50, L428, MDR+ HL (L428 MDR+ HL cells): 0.284 µg/mL (≈ 0.212 µM) | IC50, KM-H2 MDR+ HL (KM-H2 HL cells): 0.056 µg/mL (≈ 0.0418 µM) | IC50, L540cy, HL [2]: 0.117 µg/mL (≈ 0.0873 µM) | less potent than the quaternary amine-linked TubM (30) conjugate (panel of cell lines): 1-3 logs | IC50, HL60, AML (HL60 AML cells): 0.085 µg/mL (≈ 0.0634 µM) | IC50, HCT-116, CRC (HCT-116 CRC cells): 0.302 µg/mL (≈ 0.225 µM)

COc1cc2c(cc1OC)CN(CCc1ccc(NC(=O)c3cc(OC)c(OC)cc3NC(=O)c3cnc4ccccc4c3)cc1)CC2 [Free drug, Tariquidar]
Intracellular drug, TF1a (TF1a cells; free drug (Tariquidar) @ 50 nM): 3.575 µM | extracellular drug, TF1a (TF1a cells; free drug @ 50 nM, parenthetic: free drug that remains outside the cell): 43.8 nM | Intracellular drug, HCT-15 (HCT-15 cells): 6.649 µM | extracellular drug, HCT-15 (HCT-15 cells; parenthetic value): 44.3 nM | Intracellular drug, L428 (L428 cells): 4.846 µM | extracellular drug, L428 (L428 cells; parenthetic value): 47.0 nM

CC[C@H](C)[C@H](NC(=O)[C@H]1CCCCN1C)C(=O)N[C@H](C[C@@H](O)c1nc(C(=O)N[C@@H](Cc2ccccc2)C[C@H](C)C(=O)O)cs1)C(C)C [tubulysin V, Tubulysin V]
loss of potency on deacetylation of tubulysin U [4]: > 100 fold

B1: hBU12-14: "vcPAB4-AE ... obtained from compound 14 of Scheme 2 and ... monoclonal antibody hBU12, which targets C19+ cells" (conjugate, chains of the INN, looked up)
VH: QVQLQESGPGLVKPSQTLSLTCTVSGGSISTSGMGVGWIRQHPGKGLEWIGHIWWDDDKRYNPALKSRVTISVDTSKNQFSLKLSSVTAADTAVYYCARMELWSYYFDYWGQGTLVTVSS
VL: EIVLTQSPATLSLSPGERATLSCSASSSVSYMHWYQQKPGQAPRLLIYDTSKLASGIPARFSGSGSGTDFTLTISSLEPEDVAVYYCFQGSVYPFTFGQGTKLEIK
modifications: vcPAB4-auristatin E drug-linker 14
viable cells remaining at the bottom of the dose-response curve, Karpas-299 (Karpas299 ALCL cells; parenthetic value): 10% | IC50 for cell growth inhibition, Karpas-299 (Karpas299 ALCL cells; quaternized auristatin E ADC, 8 D+/Ab): 3.903 µg/mL | viable cells remaining at the bottom of the dose-response curve, Ramos (Ramos NHL cells; parenthetic value): 0% | IC50 for cell growth inhibition, Ramos (Ramos NHL cells; [5]): 0.0007 µg/mL | viable cells remaining at the bottom of the dose-response curve, RL (RL cells; parenthetic value): 21% | IC50 for cell growth inhibition, RL (RL cells; [5]): 2.11 µg/mL | viable cells remaining at the bottom of the dose-response curve, L428 (L428 MDR+ HL cells; Table 4, parenthetic value): 41% | IC50 for cell growth inhibition, L428 (L428 MDR+ HL cells; [6]): 8.614 µg/mL | viable cells remaining at the bottom of the dose-response curve, L540cy parental ([2]; Table 4, parenthetic value): 44% | IC50 for cell growth inhibition, L540cy parental [2, 6]: 5.08 µg/mL
